Assay results reported in US11530213B2, “Naphthyridinone derivatives and their use in the treatment of arrhythmia” (NOVARTIS AG, priority 2016, dated 2022).

Each molecule was assayed against GIRK1/4 (Homo sapiens (Human), UniProt P48544+P48549) (assay: GIRK1/4 inhibition, Quattro (IonWorks) population patch clamp, inward potassium current in GIRK 1/4 HEK293 stable cells (test assay No. 1)). Conditions: percentage of current inhibition normalized to DMSO-only control.
Type: cell-based
Protocol: The activity of a compound according to the present invention can be assessed by the following in vitro method. • 1. Buffers: • a. External buffer: 10 mM NaCl, 50 mM Na Gluconate, 80 mM K Gluconate, 1.8 mM CaCl2, 1 mM MgCl2, 10 mM HEPES, 10 mM Glucose, pH 7.4; osmolality […]. • b. Internal buffer: 30 mM KCl, 100 mM K Gluconate, 1 mM MgCl2, 10 mM HEPES, 1 mM EGTA, 10 mM NaCl, pH 7.2; osmolality […]. • 2. Compounds: • a. Prepare seven-fold compound dilution series (10 mM to 20 uM) in 100% DMSO, in 384-well polypropylene plates. • b. Propafenone (Sigma Aldrich, catalog number P4670) is used as a positive control and DMSO for neutral control • c. Resuspend 1 ul of compounds in DMSO into 65.7 ul external buffer in 384-well polypropylene plate and load into Plate 1 section of Molecular Devices Quattro • 3. Quattro setup: • a. Load 384-well Population Patch Plate (Molecular Devices #9000-0902) into Quattro • b. Fill Quattro F-soak trough with 20% DMSO and 50% EtOH • c. Fill Quattro buffer trough with external buffer • d. Attach internal buffer flask to Quattro internal buffer tubing • e. Attach PBS (Phosphate Buffered Saline, minus Ca^++ and Mg^++, pH7.4) bottle to F-head & E-head wash on Quattro • 4. Antibiotic: • a. Resuspend 5.6 mg amphotericin B (Sigma Aldrich, catalog number A2411) in 175 ul DMSO • b. Add the resulting solution to 50 ml internal buffer, mix and attach to antibiotic tubing port on Quattro • 5. Cells: • a. Use GIRK 1/4 HEK293 stable cells (obtained from ChanTest, 14656 Neo Parkway, Cleveland, Ohio 44128) grown to […] confluency in the following cell culture medium: DMEM containing 10% (v/v) Fetal Bovine Serum, Penicillin/Streptomycin (at “1×” concentration from a 100× stock), 0.5 mg/ml G418 and 0.1 mg/ml Zeocin. • b. Wash cells with PBS (minus Ca^++ and Mg^++), Detach cells using Detachin (Genlantis, 11011 Torreyana, San Diego, Calif. 92121), and resuspend in external buffer (5 ml final volume at 2.0-2.1×10^6 cells/ml) • c. Load into cell trough of Quattro • 6. Assay Protocol: • Quattro is controlled using IonWorks v2 software to perform the following steps: • a. Add 3.5 ul cells plus 3.5 ul external buffer to wells of Quattro Patch Plate • b. Circulate amphotericin B and internal buffer onto cells • c. Apply the following voltage protocol: Pulse 1: 15 mV for 300 milliseconds (ms), followed by Pulse 2: −120 mV for 400 ms, then Pulse 3: −15 mV for 400 ms, and finally Pulse 4: −120 mV to 40 mV over 500 ms (this is a voltage ramp). • d. Measure magnitude of inward potassium current at time point between 1200-1220 ms from start of Pulse 1 (i.e. during the voltage ramp phase). • e. Add 3.5 ul of diluted compounds (or DMSO) to wells and repeat steps c-d (final compound concentrations are 50 uM to 0.1 uM, for potent compounds 0.5 uM to 0.01 uM and each concentration is tested in quadruplicate—i.e. in 4 separate wells). • f. The difference between current magnitude pre vs. post-compound gives a measure of GIRK1/4 inhibition. • 7. Data analysis:
IC50 values are calculated by plotting the percentage of current inhibition (normalized to the DMSO-only control) as a function of compound concentration using standard data analysis software.

Chain of GIRK1/4 (P48549 whole entry): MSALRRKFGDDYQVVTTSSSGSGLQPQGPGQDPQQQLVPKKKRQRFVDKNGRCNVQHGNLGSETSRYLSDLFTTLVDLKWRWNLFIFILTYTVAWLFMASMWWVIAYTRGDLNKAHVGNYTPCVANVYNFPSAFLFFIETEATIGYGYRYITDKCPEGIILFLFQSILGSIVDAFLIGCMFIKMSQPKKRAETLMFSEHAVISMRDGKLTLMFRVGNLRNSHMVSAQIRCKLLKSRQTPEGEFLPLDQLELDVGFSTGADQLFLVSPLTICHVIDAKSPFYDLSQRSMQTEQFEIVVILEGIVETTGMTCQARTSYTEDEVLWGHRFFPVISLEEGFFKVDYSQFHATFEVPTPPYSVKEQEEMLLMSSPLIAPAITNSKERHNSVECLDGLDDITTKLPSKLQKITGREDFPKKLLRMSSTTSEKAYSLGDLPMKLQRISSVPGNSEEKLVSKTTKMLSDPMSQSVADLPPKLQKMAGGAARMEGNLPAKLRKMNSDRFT
Chain of GIRK1/4 (P48544 whole entry): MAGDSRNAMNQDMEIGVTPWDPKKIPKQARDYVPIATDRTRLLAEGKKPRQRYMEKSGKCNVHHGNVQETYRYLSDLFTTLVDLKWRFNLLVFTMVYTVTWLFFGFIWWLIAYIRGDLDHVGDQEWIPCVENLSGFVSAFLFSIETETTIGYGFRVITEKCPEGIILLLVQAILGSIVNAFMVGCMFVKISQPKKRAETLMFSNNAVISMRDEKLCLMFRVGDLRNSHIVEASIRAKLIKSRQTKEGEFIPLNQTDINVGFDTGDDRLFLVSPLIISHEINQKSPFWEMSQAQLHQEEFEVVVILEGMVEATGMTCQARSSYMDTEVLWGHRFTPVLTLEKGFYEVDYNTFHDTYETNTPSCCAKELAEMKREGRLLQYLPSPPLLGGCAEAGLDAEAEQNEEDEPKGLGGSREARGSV

Row | SMILES | IC50
1 | Cc1cc(=O)c2c(NCCc3c[nH]cn3)ncc(Cl)c2n1-c1c(Cl)cccc1Cl [Example 35, 5-((2-(1H-imidazol-4-yl)ethyl)amino)-8-chloro-1-(2,6-dichlorophenyl)-2-methyl-1,6-naphthyridin-4(1H)-one] | 35 nM
2 | CCc1cc2c(c(OCC(O)CO)n1)c(=O)cc(C)n2-c1c(Cl)cccc1Cl (stereo not shown) [Example 66, 1-(2,6-Dichlorophenyl)-5-(2,3-dihydroxpropoxy)-7-ethyl-2-methyl-1,6-naphthyridin-4(1H)-one] | 34 nM
3 | Cc1cc(=O)c2c(OCC(O)C(C)(C)O)ncc(Cl)c2n1-c1c(Cl)cccc1Cl (single isomer, unassigned) [Example 59, 8-chloro-1-(2,6-dichlorophenyl)-5-(2,3-dihydroxy-3-methylbutoxy)-2-methyl-1,6-naphthyridin-4(1H)-one] | 14 nM
4 | Cc1cc(=O)c2c(NOCCO)ncc(Cl)c2n1-c1c(Cl)cc(C#N)cc1Cl [Example 44, 3,5-dichloro-4-(8-chloro-5-((2-hydroxyethoxy)amino)-2-methyl-4-oxo-1,6-naphthyridin-1(4H)-yl)benzonitrile] | 56 nM
5 | O=c1cc(CO)n(-c2c(Cl)cccc2Cl)c2c(Cl)cnc(OCC(O)CO)c12 (stereo not shown) [Example 3, 8-chloro-1-(2,6-dichlorophenyl)-5-(2,3-dihydroxypropoxy)-2-(hydroxymethyl)-1,6-naphthyridin-4(1H)-one] | 131 nM
6 | Cc1cc(=O)c2c(OCC(O)C(C)(C)O)ncc(Cl)c2n1-c1c(Cl)cccc1Cl (single isomer, unassigned) [Example 58, 8-chloro-1-(2,6-dichlorophenyl)-5-(2,3-dihydroxy-3-methylbutoxy)-2-methyl-1,6-naphthyridin-4(1H)-one] | 17 nM
7 | O=c1cc(CO)n(-c2c(Cl)cccc2Cl)c2c(Cl)cnc(CC(O)CO)c12 (stereo not shown) [Example 78, 8-Chloro-1-(2,6-dichlorophenyl)-5-(2,3-dihydroxypropyl)-2-(hydroxymethyl)-1,6-naphthyridin-4(1H)-one] | 352 nM
8 | CCc1cc2c(c(OCC(O)CO)n1)c(=O)cc(C)n2-c1c(Cl)cccc1CC (stereo not shown) [Example 67, 1-(2-Chloro-6-ethylphenyl)-5-(2,3-dihydroxypropoxy)-7-ethyl-2-methyl-1,6-naphthyridin-4(1H)-one] | 168 nM
9 | Cc1cc(=O)c2c(OCCO)ncc(Cl)c2n1-c1c(Cl)cc(C#CCN2CCOCC2)cc1Cl [Example 91, 8-Chloro-1-(2,6-dichloro-4-(3-morpholinoprop-1-yn-1-yl)phenyl)-5-(2-hydroxyethoxy)-2-methyl-1,6-naphthyridin-4(1H)-one] | 40 nM
10 | O=c1cc(CO)n(-c2c(Cl)cccc2Cl)c2c(Cl)cnc(C(O)CO)c12 (single isomer, unassigned) [Example 84, 8-Chloro-1-(2,6-dichlorophenyl)-5-(1,2-dihydroxyethyl)-2-(hydroxymethyl)-1,6-naphthyridin-4(1H)-one] | 116 nM
11 | Cc1cc(=O)c2c(-c3cnn(C)c3)cncc2n1-c1c(Cl)cc(C#N)cc1Cl [Example 73, 3,5-Dichloro-4-(2-methyl-5-(1-methyl-1H-pyrazol-4-yl)-4-oxo-1,7-naphthyridin-1(4H)-yl)benzonitrile] | 329 nM
12 | Cc1cc(=O)c2c(OCCOCCOCCOCCOCCO)ncc(Cl)c2n1-c1c(Cl)cccc1Cl [Example 14, 8-chloro-1-(2,6-dichlorophenyl)-5-((14-hydroxy-3,6,9,12-tetraoxatetradecyl)oxy)-2-methyl-1,6-naphthyridin-4(1H)-one] | 52 nM
13 | Cc1cc(=O)c2c(NS(=O)(=O)c3cn[nH]c3)cncc2n1-c1c(Cl)cc(C#N)cc1Cl [Example 70, N-(1-(2,6-Dichloro-4-cyanophenyl)-2-methyl-4-oxo-1,4-dihydro-1,7-naphthyridin-5-yl)-1H-pyrazole-4-sulfonamide] | 3050 nM
14 | Cc1cc(=O)c2c(NOCCO)ncc(Cl)c2n1-c1c(Cl)cccc1Cl [Example 49, 8-chloro-1-(2,6-dichlorophenyl)-5-((2-hydroxyethoxy)amino)-2-methyl-1,6-naphthyridin-4(1H)-one] | 42 nM
15 | Cc1cc(=O)c2c(OCCOCCOCCOCCO)ncc(Cl)c2n1-c1c(Cl)cc(F)cc1C#N [Example 23, 3-chloro-2-(8-chloro-5-(2-(2-(2-(2-hydroxyethoxy)ethoxy)ethoxy)ethoxy)-2-methyl-4-oxo-1,6-naphthyridin-1(4H)-yl)-5-fluorobenzonitrile] | 344 nM
16 | Cc1cc(=O)c2c(CC(O)CO)ncc(Cl)c2n1-c1c(Cl)cccc1Cl (stereo not shown) [Example 81, 8-Chloro-1-(2,6-dichlorophenyl)-5-(2,3-dihydroxpropyl)-2-methyl-1,6-naphthyridin-4(1H)-one] | 23 nM
17 | Cc1cc(=O)c2c(N[C@@H]3COC[C@H]3O)ncc(Cl)c2n1-c1c(Cl)cc(C#N)cc1Cl [Example 43, 3,5-dichloro-4-(8-chloro-5-(((3R,4S)-4-hydroxytetrahydrofuran-3-yl)amino)-2-methyl-4-oxo-1,6-naphthyridin-1(4H)-yl)benzonitrile] | 26 nM
18 | Cc1cc(=O)c2c(C(O)CO)ncc(Cl)c2n1-c1c(Cl)cccc1Cl (stereo not shown) [Example 85, 8-Chloro-1-(2,6-dichlorophenyl)-5-(1,2-dihydroxyethyl)-2-methyl-1,6-naphthyridin-4(1H)-one] | 19 nM
19 | Cc1cc(=O)c2c(NCCNS(C)(=O)=O)cncc2n1-c1c(Cl)cc(C#N)cc1Cl [Example 22, N-(2-((1-(2,6-dichloro-4-cyanophenyl)-2-methyl-4-oxo-1,4-dihydro-1,7-naphthyridin-5-yl)amino)ethyl)methanesulfonamide] | 148 nM
20 | Cc1cc(=O)c2c(OCC3COC(C)(C)O3)ncc(Cl)c2n1-c1c(Cl)cc(C#CCN(C)C)cc1Cl (stereo not shown) [Example 93, 8-Chloro-1-(2,6-dichloro-4-(3-(dimethylamino)prop-1-yn-1-yl)phenyl)-5-((2,2-dimethyl-1,3-dioxolan-4-yl)methoxy)-2-methyl-1,6-naphthyridin-4(1H)-one] | 46 nM
21 | Cc1cc(=O)c2c(Nc3nnn(C)n3)ncc(Cl)c2n1-c1c(Cl)cccc1Cl [Example 47, 8-chloro-1-(2,6-dichlorophenyl)-2-methyl-5-((2-methyl-2H-tetrazol-5-yl)amino)-1,6-naphthyridin-4(1H)-one] | 59 nM
22 | O=c1cc(CO)n(-c2c(Cl)cccc2Cl)c2c(Cl)cnc(COC(CO)CO)c12 [Example 88, 8-Chloro-1-(2,6-dichlorophenyl)-5-(((1,3-dihydroxypropan-2-yl)oxy)methyl)-2-(hydroxymethyl)-1,6-naphthyridin-4(1H)-one] | 1230 nM
23 | O=c1cc(CO)n(-c2c(Cl)cccc2Cl)c2c(Cl)cnc(OC(CO)CO)c12 [Example 9, 8-chloro-1-(2,6-dichlorophenyl)-5-((1,3-dihydroxypropan-2-yl)oxy)-2-(hydroxymethyl)-1,6-naphthyridin-4(1H)-one] | 257 nM
24 | O=c1cc(CO)n(-c2c(Cl)cccc2Cl)c2c(Cl)cnc(OC[C@@H](O)CO)c12 [Example 1, (S)-8-Chloro-1-(2,6-dichlorophenyl)-5-(2,3-dihydroxpropoxy)-2-(hydroxymethyl)-1,6-naphthyridin-4(1H)-one] | 104 nM
25 | Cc1cc(=O)c2c(OCCOCCOCCOCCO)ncc(Cl)c2n1-c1c(Cl)cc(F)cc1Cl [Example 32, 8-chloro-1-(2,6-dichloro-4-fluorophenyl)-5-(2-(2-(2-(2-hydroxyethoxy)ethoxy)ethoxy)ethoxy)-2-methyl-1,6-naphthyridin-4(1H)-one] | 33 nM
